Earlier results as cited in patent publication US7935665B2, “Non-corrosive cleaning compositions for removing etch residues” (Fujifilm Electronic Materials U.S.A., Inc., priority 2002, dated 2011).

Settings: of the acid in the formulation

SMILES | pKa1 | PKa2
O=C(O)[C@H](O)[C@@H](O)[C@H](O)[C@H](O)CO [D-gluconic acid] | 3.86 | 
O=C(O)CC(O)C(=O)O (racemic) [DL-malic acid] | 3.48 | 5.1
